Measurements from patent publication US20140341846A1, “METHODS OF INHIBITING PHOTORECEPTOR APOPTOSIS” (The Regents of The University of Michigan, priority 2009, published 2014).
“Also recorded” adds a separate entry of the source.

Experiments:
[1] = system: Fas-mediated caspase 8 activation in 661W cells; assay: Fas-Ab induced caspase 8 activity in 661W cells; assay type: cell-based; settings: 500 ng/ml Fas-Ab, 48 hours after treatment
Protocol: The 661W cell line was maintained in Dulbecco's modified Eagle's medium containing 10% fetal bovine serum, 300 mg/L glutamine, 32 mg/L putrescine, 40 μL/L of β-mercaptoethanol, and 40 μg/L of both hydrocortisone 21-hemisuccinate and progesterone. The media also contained penicillin (90 units/ml) and streptomycin (0.09 mg/ml). Cells were grown at 37° C. in a humidified atmosphere of 5% CO2 and 95% air.
In cell culture experiments, caspase 8 activity was measured by a commercially available luminescent tetrapeptide (LETD) cleavage assay kit (Promega, Madison, Wis.). The 661W cells were seeded in 96-well plates (Nunc, Rochester, N.Y.) at 1500 cells/well for 24 hours prior to treatment. Cells were pre-treated with various concentrations of Met12, mMet, or vehicle for 1 hour prior to treatment with 500 ng/ml of Fas-agonistic Jo2 monoclonal antibody (BD Biosciences, San Jose, Calif.). Caspase 8 activity was measured at various time points by incubating the cells with the pro-luminescent substrate in 96-well plates following manufacturer's instructions. Controls included untreated cells and wells with no cells. Luminescence was measured in a plate reader luminometer (Turner Biosystems, Sunnyvale Calif.).

caspase 8 = assay: Caspase 8 activity in detached retinas (Met study); assay type: in vivo, Brown Norway rats; settings: 50 μg subretinal at time of detachment; 24 hours after detachment
Protocol: (§1) Retinal-RPE separation was created in Brown Norway rats by subretinal injection of 1% hyaluronic acid. Met12, derived from the Fas-binding extracellular domain of the oncoprotein Met, was injected into the subretinal space at the time of separation. […] Extrinsic apoptotic pathway was induced in 661W cells using a Fas-activating antibody in the presence or absence of Met12. Caspase 3, caspase 8, and caspase 9 activities were measured with calorimetric and luminescent assays in retinal extracts and cell lysates. Terminal deoxynucleotidyl transferase dUTP nick-end labeling (TUNEL) was performed in retinal sections 3 days after separation. Histology was performed in retinal sections 2 months after retinal detachment.
(§2) Rodents were anesthetized with a 50:50 mix of ketamine (100 mg/mL) and xylazine (20 mg/mL), and pupils were dilated with topical phenylephrine (2.5%) and tropicamide (1%). A 20-gauge microvitreoretinal blade (Walcott Scientific, Marmora, N.J.) was used to create a sclerotomy 2 mm posterior to the limbus, carefully avoiding lens damage. […]
(§3) Caspase 3, caspase 8 and caspase 9 activities were measured with colorimetric tetrapeptide cleavage assay kits, per the manufacturer's instructions (Bio-Vision, Mountain View, Calif.). […] Absorbance was measured at 405 nm in a microplate reader (Spectra-MAX 190, Molecular Devices, Sunnyvale, Calif.). […]

caspase 3 = assay: Caspase 3 activity in detached retinas (Met study); assay type: in vivo, Brown Norway rats; settings: 50 μg subretinal
Protocol: as §1, §2, §3

caspase 9 = assay: Caspase 9 activity in detached retinas (Met study); assay type: in vivo, Brown Norway rats; settings: 50 μg subretinal
Protocol: as §1, §2, §3

[2] = system: photoreceptors (outer nuclear layer); assay: TUNEL staining 3 days after retinal detachment (Met study); assay type: in vivo, Brown Norway rats; settings: 50 μg subretinal
Protocol: as §1
(§4) Rodents were anesthetized with a 50:50 mix of ketamine (100 mg/mL) and xylazine (20 mg/mL), and pupils were dilated with topical phenylephrine (2.5%) and tropicamide (1%). […]
(§5) Photoreceptor cell apoptosis was quantified as the percentage of total cells in the outer nuclear layer (ONL) that were TUNEL positive. […] The total number of cells in the ONL was measured in a similar fashion. The total thickness of the retina (measured from the outer edge of the ONL to the inner limiting membrane) was measured in three places in each of three non-overlapping high power fields (40×) at the maximal height of the retinal detachment per section and averaged for each eye. […]

[3] = system: photoreceptors (outer nuclear layer); assay: ONL cell counts and thickness 2 months after retinal detachment (Met study); assay type: in vivo, Brown Norway rats; settings: 50 μg subretinal at time of detachment; after 2 months of retinal detachment
Protocol: as §1, §4, §5

Jurkat cells = Jurkat cells (Zou et al. Nat Med. 2007); cited from earlier work

reduction of caspase 8 activity in detached retinas (caspase 8)	reduction of caspase 3 activity in detached retinas (caspase 3; after 24 hours)	reduction of caspase 9 activity in detached retinas (caspase 9; after 24 hours)	fewer TUNEL-positive photoreceptors as compared with mMet-injected separated retinas [2]	Sequence	effect on Fas-Ab induced caspase 8 activation [1]	caspase 8 activity in detached retinas compared to attached retinas (caspase 8)	effect on caspase 3 activity level in detached retinas (caspase 3; 24 hours after detachment)	effect on caspase 9 activity level in detached retinas (caspase 9; 24 hours after detachment)	increase in ONL cell counts compared with mMet-injected retinas [3]	increase in ONL thickness measurements compared with mMet-injected retinas [3]	protection from FasL induced apoptosis (Jurkat cells)
–	–	–	–	HHGSDHERNYIY [mMet, reference compound]	no effect	significantly increased	did not affect	did not affect	–	–	–
approximately 50%	approximately 50%	approximately 50%	~77%	HHIYLGAVNYIY [Met12]	inhibited by Met12 treatment in a dose dependent manner; also recorded: full inhibition	–	–	–	37%	27%	protects
